Laboratory results: EP3694851B1, “ENVIRONMENTALLY DEGRADABLE QUINOLONE ANTIBIOTICS HAVING A HEMIAMINAL STRUCTURAL UNIT” (priority 2017, dated 2019)
Values after ≈ are worked out from the molar mass of the structure shown.

Columns and labels:
[1] = test system: Humane embryonale Nierenzellen (HEK293); test: Cytotoxicity test in HEK293 cells; assay type: cell-based, human; details: Figure 3
Procedure: Humane embryonale Nierenzellen (HEK293) wurden in 384-well-Platten mit einer Dichte von 6000 Zellen/well in einem finalen Volumen von 50 µl mit der gewünschten Konzentration der Testsubstanz ausgesät. DMEM mit 10% fötalem Rinderserum (FBS) wurde als Wachstumsmedium verwendet. Die Zellen wurden zusammen mit den Testsubstanzen für 20 h bei 37 °C mit 5% COz inkubiert.

[2] = test system: E. faecalis ATCC 29121, P. aeruginosa ATCC 27853, S. aureus ATCC 29213, E. coli ATCC 25922, S. aureus ATCC 43300, K. pneumoniae ATCC 700603, A. baumanii ATCC …; test: Minimal inhibitory concentrations in various bacterial strains (broth microdilution); assay type: cell-based
Excerpt: Minimale Hemmkonzentrationen in verschiedenen Bakterienstämmen: Die antibiotische Aktivität wurde mittels Durchführung der Broth-Mikroverdünnungsmethode ermittelt (Cockerill et al., 2012, siehe Literatur). Es wurden die folgenden Bakterienstämme verwendet: Staphylococcus aureus (ATCC 29213), Enterococcus faecalis (ATCC 29212), Escherichia coli (ATCC 25922) und Pseudomonas aeruginosa (ATCC 27853), sowie S. aureus (ATCC 43300), K. pneumoniae (ATCC 700603), A. baumanii (ATCC 19606). Die Bestimmungen der minimalen Hemmkonzentrationen wurden durch zwei unabhängige Laboratorien durchgeführt.
Bakterienzellen wurden bei einer Zelldichte von 2 - 8 × 10^5 cfu/ml in 200 µl Mueller-Hinton-Brothmedium verdünnt. Die Ansätze enthielten eine Verdünnungsreihe der Testsubstanzen. Diese inokulierten 96-well Platten wurden für 18 h bei 36°C inkubiert. Die minimale Hemmkonzentration wurde ermittelt durch visuelle Abschätzung der niedrigsten Konzentration, die die Bakterien vollständig gehemmt hatte.

[3] = Abiotic hydrolysis (pH-dependent, phosphate-buffered saline, HPLC); details: for Abspaltung des labilen Linkers: Figures 6a and 6b; for Abbau des Hemiaminal-Restes: within 7 days
Procedure: Der pH-Wert wurde auf pH 6, pH 7,4 oder pH 9 eingestellt. Die Ansätze wurden bei 37 °C für pH 6 und 7,4 und bei Raumtemperatur für pH 9 unter Schütteln (250 rpm) für 28 Tage inkubiert. An Tag 0, 1, 7, 14, 21 und 28 wurden Proben (700µL) für die HPLC Analyse entnommen. Der Quotient der Ausgangskonzentration co durch die Konzentration am jeweiligen Zeitpunkt (ct) wurde kalkuliert und als natürlicher Logarithmus gegen die Inkubationszeit aufgetragen.
Eine NUCLEODUR® RP-C18 (CC 125/4 100-5µm C18 ec) Säule und mobile Phasen bestehend aus 0.1 % Ameisensäure in hochreinem Wasser (CH2O2: Solution A) and 100 % Acetonitril (CH3CN: Solution B) wurden verwendet. Die Flußrate wurde auf 0.5 mL min^-1 eingestellt. Die Temperatur des Säulenofens wurde auf 25 °C eingestellt und das Injektionsvolumen betrug 10 µL. […] Die Testsubstanzen wurden durch einen UV/Vis Detektor bei 270 nm detektiert. Die Fließgradientenmethode wurde angewendet wie in Tabelle 1 aufgelistet. Tabelle 1 : Fließgradientenbedingungen zur chromatographischen Analyse der Testsubstanzen

[4] = test system: Escherichia coli K12 ATCC 23716; test: Growth inhibition in E. coli (96-well plate, 4 h at 37°C, absorption at 600 nm); assay type: cell-based; details: ATCC23716, 4 h, E. coli (ATCC 23716), activity in the range of medium-strength fluoroquinolones, Figure 4
Procedure: Escherichia coli K12 ATCC 23716 wurde von DSMZ GmbH (Braunschweig, Germany) erhalten.
Die Testsubstanzen wurden in Wasser verdünnt und auf einer 96-well-Platte zur Bakteriensuspension (in 2x Bakterienmedium (10 g Pepton and 6 g Fleischextrakt in 1 Liter)) gegeben, so dass die Endkonzentration des Mediums 1x war. Die Platte wurde 4h bei 37°C inkubiert. Die Zelldichte wurde photometrisch durch Messung der Absorption bei 600 nm bestimmt. Die Wachstumshemmung in Prozent der unbehandelten Kontrollen gegen die Konzentration der Testsubstanz aufgetragen.

[5] = test system: Vibrio fischeri NRRL-B-11177; test: Luminescence inhibition in V. fischeri (luminescent bacteria test); assay type: cell-based; details: after cleavage of the linker, compared with Verbindung 1; Figure 5
Excerpt: Die antibiotische Aktivität in V. fischeri wurden in einem Leuchtbakterientest (LBT) mit Vibrio fischeri NRRL-B-11177 (Hach-Lange GmbH, Düsseldorf, Germany) untersucht. Die Durchführung des LBT erfolgte nach dem modifizierten Protokoll von Menz et al. (2013), siehe Literaturliste.

[6] = Stability test at low pH (Marbofloxacin); assay type: physicochemical

For O=C(O)c1cn(C2CCCO2)c2cc(N3CCNCC3)c(F)cc2c1=O (stereo not drawn) [Verbindung 1], the “Zytotoxizität in humanen Zellen (HEK 293)” value [1] was “keine Hinweise auf einen Zytotoxizität”, the “Aktivität in anderen pathogenen Bakterien” value ([2]; other pathogenic bacteria, compared with quinolone generations) was “über den Chinolonen der ersten Generation, aber unterhalb etablierter Fluorchinolone der zweiten Generation” and the “antibakterielle Aktivität” value ([2]; strains of E. coli, K. pneumoniae, P. aeruginosa and V. fischeri, compared with medium-strength fluoroquinolones) was “zu mittelstarken Fluorchinolonen eine vergleichbare antibakterielle Aktivität”. For the same molecule, the “Abspaltung des labilen Linkers” value ([3]; at low pH) was “schnell”, the “Abbau des Hemiaminal-Restes” value ([3]; low pH of four (e.g. in urine)) was “zum größten Teil abgebaut” and the “Abbau des Hemiaminal-Restes” value ([3]; physiological conditions (pH= 7,4)) was “nur langsam abgebaut”. For the same molecule, the “Abspaltung des labilen Linkers” value ([3]; under physiological conditions) was “langsam” and the MIC [4] was 0.1 to 1 µg/mL (≈ 0.277 to 2.77 µM).

For O=C(O)c1cnc2cc(N3CCNCC3)c(F)cc2c1O [Cip-d-CP, reference compound], the “antibiotische Aktivität in V. fischeri (Leuchthemmung)” value [5] was “deutliche Abschwächung der antibiotischen Aktivität nach Abspaltung des Linkers”, the “antibiotische Aktivität (MHK) im Vergleich zur Ausgangssubstanz” value ([2]; fragment after cleavage of the linker compared with Verbindung 1, Figures 2 and 3) was “deutlich schwächer aktiv als die Ausgangssubstanz” and the “Instabilität unter den gewählten pH-Bedingungen” value ([3]; chosen pH conditions (pH 6, pH 7,4 at 37°C; pH 9 at room temperature; 28 days)) was “Weder das verbleibende Fragment noch die Ausgangssubstanz Ciprofloxacin waren unter den gewählten pH-Bedingungen instabil”.

For CN1CCN(c2c(F)cc3c(=O)c(C(=O)O)cn4c3c2OCN4C)CC1 [Marbofloxacin], the “Instabilität bei niedrigem pH” value [6] was “kaum Instabilität beobachtet”.
